The results in this text go back to article PMC8804135 (Neurotherapeutics, 2021).

Numbered stars: 1 amine (or outer) side, 2 acyl side, 3 side chain; on linkers, the order of the positions; unused ones are H or OH. Bridge positions count the residues as written; N and C are the ends. Square brackets hold non-standard residues; d marks the D form. Ends that are not written are not given here. Peptide text beside a SMILES is read from it. dAbu(3S-yl) = C[C@@H]([C@@H](N[*:1])C(=O)[*:2])[*:3]; pGlu = O=C1CC[C@@H](C(=O)O)N1

Common to all, as to type: cell-based
The target in experiment [1] is T1, GAL2R (Homo sapiens, UniProt O43603).
T1 sequence (O43603 1-387): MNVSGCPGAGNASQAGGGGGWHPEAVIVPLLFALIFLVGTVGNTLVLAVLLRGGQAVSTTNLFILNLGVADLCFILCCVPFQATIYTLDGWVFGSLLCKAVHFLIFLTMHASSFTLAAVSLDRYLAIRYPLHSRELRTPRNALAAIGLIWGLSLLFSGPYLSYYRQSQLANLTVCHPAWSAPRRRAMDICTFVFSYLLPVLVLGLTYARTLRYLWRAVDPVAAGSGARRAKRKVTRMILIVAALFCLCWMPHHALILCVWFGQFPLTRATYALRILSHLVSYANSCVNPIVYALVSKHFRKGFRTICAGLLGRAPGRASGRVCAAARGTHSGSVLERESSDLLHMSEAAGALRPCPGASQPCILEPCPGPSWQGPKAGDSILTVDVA
Description: Fluo-4 Direct calcium assay (Ca efflux) in HEK293 cells overexpressing GAL2R. The note with it: Table 3; HEK293 cells stably overexpressing GAL2R; Fluo-4, from 10 µM; (average) ratio, (n) in cell = number of assays; NA = ratio above 1000. How it is done: Calcium efflux was measured by using a Fluo-4 Direct Calcium Assay purchased from Thermo Fisher Scientific. HEK293 cells with stable overexpression of GAL2R (HEKR2) (kindly provided by Harald Dargatz, Molecular, Cellular and Pharmacobiology Section, Institute of Pharmaceutical Biology, University of Bonn, 53,115 Bonn, Germany) were used for analysis of the lanthipeptides. HEKR2 cells were seeded in a 96-well plate and grown overnight in DMEM supplemented with 10% FBS, 1% penicillin–streptomycin, 100 µg/ml Normocin, and 500 µg/ml G418 at 37 °C, 5% CO2 in a humidified incubator.
The next day, when the cells were nearly confluent, an equal amount of 2 × Fluo-4 Direct™ calcium reagent loading solution, containing 5 mM probenecid, was added to the wells, and the plate was incubated for 1 h at 37 °C. A serial 3 × dilution of the agonist compound in water was made, and 10 µl of the serial dilutions was applied to the cells in duplicate. The starting concentration of agonist in the assay was 10 µM. After 1–2 h of incubation at room temperature, the fluorescence was measured with excitation at 485/20 nm and emission at 528/20 nm with a Synergy HT Biotek reader.

The target in experiment [2] is T1, GAL2R. Put plainly: PathHunter eXpress β-arrestin recruitment assay, GAL2R. The arrangement: expressed in transfected cells. The note with it: Table 3; CHO-K1 cells co-expressing GAL2R and β-arrestin 2; 10 µM to 5 nM; (average) ratio, (n) in cell = number of assays; NA = ratio above 1000. Here is the method: (§1) To evaluate the ability of lanthipeptides to recruit ß-arrestins via GAL1R or via GAL2R, we used the PathHunter® eXpress GAL1R, CHO-K1, β-arrestin GPCR Assay and the PathHunter® eXpress GAL2R, CHO-K1, β-arrestin, GPCR Assay from Eurofins-DiscoverX. The assays were performed according to the manufacturer’s instructions. Briefly, for one assay, CHO-K1 cells co-expressing GAL1R or GAL2R and β-arrestin (isoform 2) were diluted in AssayComplete™ Cell Plating Reagent, and 100 µl was seeded into each well of a 96-well plate. The plate was incubated at 37 °C, 5% CO2 in a humidified incubator. A serial 3 × dilution of the lanthipeptides in water was made (10 µM to 5 nM). After 48 h of incubation, 10 µl of the serial dilutions was applied to the cells in duplicate. The agonists were incubated for 90 min at 37 °C. Next, 55 µL of Working Detection Solution was added, and after 1 h of incubation at room temperature in the dark, the chemiluminescent signal was read with a Synergy HT Biotek reader.

The target of experiment [3] is T2, GAL1R (Homo sapiens, UniProt P47211).
T2 sequence (P47211 1-349): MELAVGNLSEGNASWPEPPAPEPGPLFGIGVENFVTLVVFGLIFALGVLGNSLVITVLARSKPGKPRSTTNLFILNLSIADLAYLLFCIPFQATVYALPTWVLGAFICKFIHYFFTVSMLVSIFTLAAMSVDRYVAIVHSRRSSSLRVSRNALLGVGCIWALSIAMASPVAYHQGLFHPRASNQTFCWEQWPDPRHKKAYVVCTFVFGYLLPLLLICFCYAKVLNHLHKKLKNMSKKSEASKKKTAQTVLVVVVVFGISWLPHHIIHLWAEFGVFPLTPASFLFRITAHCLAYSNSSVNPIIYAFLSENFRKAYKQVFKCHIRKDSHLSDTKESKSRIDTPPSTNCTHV
Put plainly: PathHunter eXpress β-arrestin recruitment assay, GAL1R. The arrangement: expressed in transfected cells. The note with it: Table 3; CHO-K1 cells co-expressing GAL1R and β-arrestin 2; 10 µM to 5 nM; (average) ratio, (n) in cell = number of assays; NA = ratio above 1000. Here is the method: as §1

Experiment [4] addresses T2, GAL1R. Description: cAMP Hunter eXpress GAL1R CHO-K1 GPCR assay (inhibition of forskolin-induced cAMP). The note with it: Table 3; CHO-K1 cells expressing GAL1R; 20 µM forskolin; 10 µM to 5 nM; (average) ratio, (n) in cell = number of assays; NA = ratio above 1000. The arrangement: expressed in transfected cells. Here is the method:
To evaluate the ability of lanthipeptides to […] via GAL1R signaling, we used the cAMP Hunter™ eXpress GAL1R CHO-K1 GPCR Assay from Eurofins-DiscoverX. The assay was performed according to the manufacturer’s instructions. Briefly, for one assay, CHO-K1 cells expressing GAL1R were diluted in AssayComplete™ Cell Plating 2 Reagent, and 100 µl was seeded into each well of a 96-well plate. The plate was incubated at 37 °C, 5% CO2 in a humidified incubator. After 24 h of incubation, the media was aspirated, and 45 µl cell assay buffer/antibody mixture was added to all wells. […] Fifteen µl of the serial dilutions was applied in duplicates to the cells. The concentration of forskolin in the assay was 20 µM. The agonists were incubated for 30 min at 37 °C. Next, 15 µL Antibody Solution and 60 μL cAMP Working Detection Solution were added, and the plate was incubated for 1 h in the dark at room temperature. Finally, 60 μL cAMP Solution A was added and, after 3 h of incubation in the dark at room temperature, the chemiluminescent signal was read with a Synergy HT Biotek reader.

Consider `CC(C)C[C@H](NC(=O)[C@H](CC(C)C)NC(=O)[C@H](Cc1ccc(O)cc1)NC(=O)CNC(=O)[C@H](C)NC(=O)[C@H](C)NC(=O)[C@H](CC(N)=O)NC(=O)[C@H](CC(C)C)NC(=O)[C@H](CC(N)=O)NC(=O)[C@H](Cc1c[nH]c2ccccc12)NC(=O)[C@@H]1CCC(=O)N1)C(=O)NCC(=O)N1CCC[C@H]1C(=O)N[C@@H](Cc1c[nH]cn1)C(=O)N[C@@H](C)C(=O)N[C@H]1C(=O)NCC(=O)N[C@@H](CC(N)=O)C(=O)N[C@H](C(=O)N[C@@H](CCCNC(=N)N)C(=O)O)CS[C@H]1C` [Variant M74b] ([pGlu]WNLNAAGYLLGPHA[dAbu(3S-yl)]GNCR-OH; thioether 16-19; C-terminus assumed), for which the “EC50 ratios to Gal-(1-15), GAL2R Ca-efflux” value (“EC50 ratios … GAL2R Ca-efflux” below) on GAL2R [1] was 2.6 (3). For the same compound, the “EC50 ratios to Gal-(1-15), GAL2R ß-Arrestin” value (shortened to “EC50 ratios … GAL2R ß-Arrestin”) on GAL2R [2] is recorded as 4.2 (1). Further, the “EC50 ratios to Gal-(1-15), GAL1R ß-Arrestin” value (from here on “EC50 ratios … GAL1R ß-Arrestin”) at GAL1R [3] is on record as 129 (1). Besides, at GAL1R [4], the “EC50 ratios to Gal-(1-15), GAL1R cAMP” value was 13.3 (1).

For `CC(C)C[C@H](NC(=O)[C@H](CC(C)C)NC(=O)[C@H](Cc1ccc(O)cc1)NC(=O)CNC(=O)[C@H](C)NC(=O)[C@H](C)NC(=O)[C@H](CC(N)=O)NC(=O)[C@H](CC(C)C)NC(=O)[C@H](CC(N)=O)NC(=O)[C@H](Cc1c[nH]c2ccccc12)NC(=O)[C@@H]1CCC(=O)N1)C(=O)NCC(=O)N[C@@H](C)C(=O)N[C@H]1C(=O)N[C@@H](C)C(=O)N[C@@H](C(C)C)C(=O)N[C@H](C(=O)N[C@@H](CC(N)=O)C(=O)N[C@@H](Cc2c[nH]cn2)C(=O)N[C@@H](CCCNC(=N)N)C(=O)O)CS[C@H]1C` [Variant M54] ([pGlu]WNLNAAGYLLGA[dAbu(3S-yl)]AVCNHR-OH; thioether 14-17; C-terminus assumed), the “EC50 ratios … GAL2R Ca-efflux” value at GAL2R [1] is recorded as 3.3 (3). Further, the “EC50 ratios … GAL2R ß-Arrestin” value on GAL2R [2] is recorded as 1.2 (3). Also, at GAL1R [3], the “EC50 ratios … GAL1R ß-Arrestin” value is recorded as 4.5 (2). Further, on GAL1R [4], the “EC50 ratios to Gal-(1-15), GAL1R cAMP” value was 140 (2).

Turning to “GWNLNAAGYLLGATAVGCHR (also: sidechain bridge or staple (positions not given here)) [Variant M76, methyllanthionine-containing galanin variant produced in L. lactis]”, at GAL2R [1], the “EC50 ratios … GAL2R Ca-efflux” value is on record as 0.9 (1). The “EC50 ratios … GAL2R ß-Arrestin” value at GAL2R [2] is reported as 1.0 (1). For the same compound, on GAL1R [3], the “EC50 ratios … GAL1R ß-Arrestin” value is 1.0 (1). For the same compound, the “EC50 ratios to Gal-(1-15), GAL1R cAMP” value on GAL1R [4] is given as 0.6 (1).

“[pGlu]WNLNAAGYLLGATAVCNH (also: sidechain bridge or staple (positions not given here)) [Variant M54tr, pyroglutamate- and methyllanthionine-containing galanin variant]”: the “EC50 ratios … GAL2R Ca-efflux” value at GAL2R [1] is on record as 1.2 (2). Moreover, the “EC50 ratios … GAL2R ß-Arrestin” value on GAL2R [2] is 1 (1). In addition, on GAL1R [3], the “EC50 ratios … GAL1R ß-Arrestin” value is listed as “NA (1) (NA is not active; ratios above 1000 were considered to be not active)”. The “EC50 ratios to Gal-(1-15), GAL1R cAMP” value on GAL1R [4] is on record as 16 (1).

For “[pGlu]WNLNAAGYLLGATAVGCHR (also: sidechain bridge or staple (positions not given here)) [Variant M76b, pyroglutamate- and methyllanthionine-containing galanin variant]”, the “EC50 ratios … GAL2R Ca-efflux” value at GAL2R [1] is 1.0 (1). Moreover, on GAL2R [2], the “EC50 ratios … GAL2R ß-Arrestin” value is on record as 0.5 (1). On GAL1R [3], the “EC50 ratios … GAL1R ß-Arrestin” value is on record as 9.6 (1). Moreover, on GAL1R [4], the “EC50 ratios to Gal-(1-15), GAL1R cAMP” value is on record as 12.2 (1).
